Experimental data as given in patent US20250282776A1, “Bicyclic TLR7 Agonists and Uses Thereof” (Bristol-Myers Squibb Company, priority 2024, published 2025).

Key:
human TLR8 (hTLR8) = target: T1, human TLR8 (hTLR8) (Homo sapiens, UniProt Q9NR97); experiment: Human TLR8 agonist activity assay (measured in a similar manner); assay type: cell-based; settings: HEK-Blue TLR cells, SEAP reporter, measured in a similar manner to TLR7; some values average of multiple measurements
T1 construct: expressed in transfected cells
T1 sequence (Q9NR97 27-1041): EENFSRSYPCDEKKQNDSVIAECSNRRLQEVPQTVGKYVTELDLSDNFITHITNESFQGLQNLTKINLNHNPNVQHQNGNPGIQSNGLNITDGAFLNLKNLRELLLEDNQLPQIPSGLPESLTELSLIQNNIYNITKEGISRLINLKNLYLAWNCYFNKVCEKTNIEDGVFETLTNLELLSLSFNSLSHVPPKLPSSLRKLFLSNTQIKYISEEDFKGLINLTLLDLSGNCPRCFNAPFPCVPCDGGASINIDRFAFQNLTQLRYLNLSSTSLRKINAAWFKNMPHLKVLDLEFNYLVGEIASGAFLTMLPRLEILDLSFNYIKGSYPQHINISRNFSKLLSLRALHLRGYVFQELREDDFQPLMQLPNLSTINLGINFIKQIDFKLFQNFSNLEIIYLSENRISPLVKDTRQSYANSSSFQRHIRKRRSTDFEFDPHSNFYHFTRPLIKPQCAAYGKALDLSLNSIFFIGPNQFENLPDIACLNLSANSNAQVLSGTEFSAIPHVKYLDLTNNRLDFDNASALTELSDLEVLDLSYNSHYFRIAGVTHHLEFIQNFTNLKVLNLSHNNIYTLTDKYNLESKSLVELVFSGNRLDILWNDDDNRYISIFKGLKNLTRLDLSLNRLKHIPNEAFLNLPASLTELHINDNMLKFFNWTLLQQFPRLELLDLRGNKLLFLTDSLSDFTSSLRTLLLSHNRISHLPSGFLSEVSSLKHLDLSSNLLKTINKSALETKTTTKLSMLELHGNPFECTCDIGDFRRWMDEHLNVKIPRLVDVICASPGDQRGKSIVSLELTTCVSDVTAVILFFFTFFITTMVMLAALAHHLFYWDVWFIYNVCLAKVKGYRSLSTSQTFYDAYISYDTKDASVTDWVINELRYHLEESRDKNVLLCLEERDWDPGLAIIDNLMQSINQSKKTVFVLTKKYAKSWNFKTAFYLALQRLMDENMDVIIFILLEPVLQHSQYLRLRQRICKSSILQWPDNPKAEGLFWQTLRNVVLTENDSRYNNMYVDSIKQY
Experimental: (§1) This procedure describes a method for assaying human TLR7 (hTLR7) and human TLR8 (hTLR8) agonist activity of the compounds disclosed herein.
HEK-Blue™ TLR7 cells were added to each well of a 384-well tissue-culture plate (15,000 cells per well) and incubated 16-18 h at 37° C., 5% CO2. Compounds (100 nL) were dispensed into wells containing the HEK-Blue™ TLR cells and the treated cells were incubated at 37° C., 5% CO2. After 18 h, ten microliters 5 of freshly prepared Quanti-Blue™ reagent (Invivogen) was added to each well and incubated for 30 min (37° C., […]). SLAP levels were measured using an Envision plate reader (OD=620 nm). […] Some of the reported activities were the average of multiple measurements.
TLR8 activity was measured in a similar manner.

human TLR7 (hTLR7) = target: T2, human TLR7 (hTLR7) (Homo sapiens, UniProt Q9NYK1); experiment: Human TLR7 agonist activity assay (HEK-Blue TLR7 SEAP reporter); assay type: cell-based; settings: HEK-Blue TLR7 cells, 18 h incubation, Quanti-Blue, OD 620 nm, some values average of multiple measurements
T2 construct: host or cells: HEK-Blue TLR7 cells (engineered human embryonic kidney cells)
T2 sequence (Q9NYK1 27-1049): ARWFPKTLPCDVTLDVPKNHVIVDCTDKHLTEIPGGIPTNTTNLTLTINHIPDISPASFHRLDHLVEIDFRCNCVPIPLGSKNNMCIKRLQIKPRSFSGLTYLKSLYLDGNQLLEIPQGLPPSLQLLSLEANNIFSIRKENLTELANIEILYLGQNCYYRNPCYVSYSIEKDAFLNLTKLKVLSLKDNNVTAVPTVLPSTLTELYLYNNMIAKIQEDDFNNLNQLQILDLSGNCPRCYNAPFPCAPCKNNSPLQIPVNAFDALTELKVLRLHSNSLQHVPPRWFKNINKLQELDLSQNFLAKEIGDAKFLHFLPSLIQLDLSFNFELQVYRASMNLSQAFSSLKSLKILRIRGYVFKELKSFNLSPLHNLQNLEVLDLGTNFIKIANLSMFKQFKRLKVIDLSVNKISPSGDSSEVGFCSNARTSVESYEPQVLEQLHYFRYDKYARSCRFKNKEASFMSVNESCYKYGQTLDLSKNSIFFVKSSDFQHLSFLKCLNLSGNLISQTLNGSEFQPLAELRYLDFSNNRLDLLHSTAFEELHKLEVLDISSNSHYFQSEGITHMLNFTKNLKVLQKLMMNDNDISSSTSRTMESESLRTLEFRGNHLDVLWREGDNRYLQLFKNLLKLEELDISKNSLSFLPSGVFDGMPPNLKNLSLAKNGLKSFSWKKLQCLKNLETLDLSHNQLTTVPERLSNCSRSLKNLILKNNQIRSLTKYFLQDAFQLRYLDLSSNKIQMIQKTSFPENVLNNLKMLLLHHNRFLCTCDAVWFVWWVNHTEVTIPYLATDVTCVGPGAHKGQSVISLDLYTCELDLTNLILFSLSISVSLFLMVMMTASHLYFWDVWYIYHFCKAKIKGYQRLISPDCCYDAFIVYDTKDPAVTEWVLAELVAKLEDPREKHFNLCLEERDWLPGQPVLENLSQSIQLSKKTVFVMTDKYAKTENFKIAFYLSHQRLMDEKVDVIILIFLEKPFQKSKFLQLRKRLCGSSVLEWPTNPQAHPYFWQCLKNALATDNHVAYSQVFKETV
Experimental: as §1
HEK-Blue™ TLR7 cells were added to each well of a 384-well tissue-culture plate (15,000 cells per well) and incubated 16-18 h at 37° C., 5% CO2. Compounds (100 nL) were dispensed into wells containing the HEK-Blue™ TLR cells and the treated cells were incubated at 37° C., 5% CO2. After 18 h, ten microliters 5 of freshly prepared Quanti-Blue™ reagent (Invivogen) was added to each well and incubated for 30 min (37° C., […]). SLAP levels were measured using an Envision plate reader (OD=620 nm). The half maximal effective concentration values (ECSO; compound concentration which induced a response halfway between the assay baseline and maximum) were calculated. Some of the reported activities were the average of multiple measurements.

Row | SMILES | EC50 (human TLR8 (hTLR8)) | EC50 (human TLR7 (hTLR7))
1 | CCCCN(CCO)c1nc(N)nc2cn(Cc3ccc(CN[C@@H]4CCOC4)cc3OC)nc12 [Compound 53] | 486 nM | 731 nM
2 | CCCCN(CCO)c1nc(N)nc2cn(Cc3ccc(CN[C@@H]4COC[C@@H]4F)cc3OC)nc12 [Compound 54] | 1500 nM | 1330 nM
3 | CCCCN(CCO)c1nc(N)nc2cn(Cc3ccc(CN4CCCNCC4)cc3OC)nc12 [Compound 55] | 2030 nM | 349 nM
4 | CCCCN(CCO)c1nc(N)nc2cn(Cc3ccc(CN[C@H]4CCN(C(C)C)C4)cc3OC)nc12 [Compound 56] | 2310 nM | 1700 nM
5 | CCCCCNCc1ccc(Cn2cc3nc(N)nc(N(CCO)CCCC)c3n2)c2ncccc12 [Compound 57] | 1390 nM | 2000 nM
6 | CCCCN(CCO)c1nc(N)nc2cn(Cc3ccc(CNC4CCOCC4)c4cccnc34)nc12 [Compound 58] | 488 nM | 757 nM
7 | CCCCN(CCO)c1nc(N)nc2cn(Cc3ccc(CNCCCCO)c4cccnc34)nc12 [Compound 59] | 1140 nM | 1550 nM
8 | CCCCN(CCO)c1nc(N)nc2cn(Cc3ccc(CN4CCN(C5CCC5)CC4)c4cccnc34)nc12 [Compound 60] | 469 nM | 326 nM
9 | CCCCN(CCO)c1nc(N)nc2cn(Cc3ccc(CNC4CCCC4)c4cccnc34)nc12 [Compound 61] | 952 nM | 1500 nM
10 | CCCCN(CCO)c1nc(N)nc2cn(Cc3ccc(CN4CC(CCO)C4)c4cccnc34)nc12 [Compound 62] | 675 nM | 1310 nM
11 | CCCCN(CCO)c1nc(N)nc2cn(Cc3ccc(CNCCCC4CC4)c4cccnc34)nc12 [Compound 63] | 736 nM | 915 nM
12 | CCCCN(CCO)c1nc(N)nc2cn(Cc3ccc(CNC4CC(F)(F)C4)c4cccnc34)nc12 [Compound 64] | 1550 nM | 2110 nM
13 | CCCCN(CCO)c1nc(N)nc2cn(Cc3ccc(CNC4CCN(C)CC4)c4cccnc34)nc12 [Compound 65] | 2380 nM | 2090 nM
14 | CCCCN(CCO)c1nc(N)nc2cn(Cc3ccc(CNC4CCN(CCOC)CC4)c4cccnc34)nc12 [Compound 66] | 2130 nM | 1590 nM
15 | CCCCN(c1nc(N)nc2cn(Cc3ccc(CN[C@@H]4CCOC4)cc3OC)nc12)C(C)CO (stereo partly drawn) [Compound 68] | 1320 nM | 349 nM
16 | CCCCCN(CCO)c1nc(N)nc2cn(Cc3ccc(CN[C@@H]4CCOC4)cc3OC)nc12 [Compound 70] | 1060 nM | 1050 nM
17 | CCCCN(CCOC)c1nc(N)nc2cn(Cc3ccc(CN[C@@H]4CCOC4)cc3OC)nc12 [Compound 71] | 1880 nM | 621 nM
18 | CCCCN(CCO)c1nc(N)nc2cn(Cc3c(F)cc(CNCCO)cc3OC)nc12 [Compound 72] | 835 nM | 738 nM
19 | CCCCN(CCO)c1nc(N)nc2cn(Cc3c(F)cc(CNCCOC)cc3OC)nc12 [Compound 73] | 593 nM | 320 nM
20 | CCCCN(CCO)c1nc(N)nc2cn(Cc3c(F)cc(CNC4CCOCC4)cc3OC)nc12 [Compound 74] | 1280 nM | 741 nM

Continued, values first:

Row | EC50 (human TLR8 (hTLR8)) | EC50 (human TLR7 (hTLR7)) | SMILES
21 | 670 nM | 370 nM | CCCCN(CCO)c1nc(N)nc2cn(Cc3c(F)cc(CN[C@@H]4CCOC4)cc3OC)nc12 [Compound 75]
22 | 1620 nM | 1410 nM | CCCCN(CCO)c1nc(N)nc2cn(Cc3c(F)cc(CNCC(C)(C)C)cc3OC)nc12 [Compound 80]
23 | 1430 nM | 1000 nM | CCCCN(CCO)c1nc(N)nc2cn(Cc3c(F)cc(CNCC(C)(C)O)cc3OC)nc12 [Compound 81]
24 | 2260 nM | 511 nM | CCCCN(CCO)c1nc(N)nc2cn(Cc3c(F)cc(CN4CC5(COC5)C4)cc3OC)nc12 [Compound 83]
25 | 497 nM | 199 nM | CCCCN(CCO)c1nc(N)nc2cn(Cc3c(F)cc(CN4CC(OC)C4)cc3OC)nc12 [Compound 84]
26 | 1970 nM | 148 nM | CCCCN(CCO)c1nc(N)nc2cn(Cc3ccc(CN[C@@H]4CCOC4)cc3OC)nc12 [Compound 85]
27 | 311 nM | 229 nM | CCCCN(c1nc(N)nc2cn(Cc3ccc(CN[C@@H]4CCOC4)cc3OC)nc12)C(C)CO (stereo partly drawn) [Compound 86]
28 | 535 nM | 805 nM | CCCCN(CCO)c1nc(N)nc2cn(Cc3ccc(CNC4(C)CCOCC4)cc3OC)nc12 [Compound 88, 2-((5-Amino-2-(2-methoxy-4-(((4-methyltetrahydro-2H-pyran-4-yl)amino)methyl)benzyl)-2H-pyrazolo[4,3-d]pyrimidin-7-yl)(butyl)amino)ethan-1-ol]
29 | 961 nM | 1550 nM | CCCCN(CCO)c1nc(N)nc2cn(Cc3ccc(CNC4(C)CC4)cc3OC)nc12 [Compound 89]
30 | 2410 nM | 2150 nM | CCCCN(CCO)c1nc(N)nc2cn(Cc3cccc4c3OCCN4C(=O)CN(C)C)nc12 [Compound 90]
31 | 2080 nM | 1220 nM | CCCCN(CCO)c1nc(N)nc2cn(Cc3c(F)cc(CNC4(CO)CC4)cc3OC)nc12 [Compound 91]
32 | 2110 nM | 1330 nM | CCCCN(CCO)c1nc(N)nc2cn(Cc3c(F)cc(CNCC4(CO)CC4)cc3OC)nc12 [Compound 92]
33 | 1910 nM | 2580 nM | CCCCN(CCO)c1nc(N)nc2cn(Cc3c(F)cc(CN[C@H]4CC[C@H](O)CC4)cc3OC)nc12 [Compound 93]
34 | 2660 nM | 1500 nM | CCCCN(CCO)c1nc(N)nc2cn(Cc3c(F)cc(CN[C@H]4C[C@H](O)C4)cc3OC)nc12 [Compound 94]
35 | 2500 nM | 1240 nM | CCCCN(CCO)c1nc(N)nc2cn(Cc3c(F)cc(CN[C@@H]4COC[C@@H]4O)cc3OC)nc12 [Compound 95]
36 | 1990 nM | 540 nM | CCCCN(CCO)c1nc(N)nc2cn(Cc3c(F)cc(N4CCC(N[C@@H]5CCOC5)CC4)cc3F)nc12 [Compound 96]
